Results reported in PubChem BioAssay AID1963865 (Molecular Pharmacology Branch, DTP, NCI, 2024).

Tested on: KRAS PDC multicell spheroid viability
Assay: Anticancer human tumor 825966-067-R-J1-PDC patient-derived colon carcinoma cell line growth inhibition [KRAS2]
Details: for IC50: curve of first compound; for viability, T/C: stronger effect = lower value
Summary of the method: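 Combination screen of spheroid viability in tumor-cell co-cultures with endothelial (HUVEC) and mesenchymal stem cell stroma. Each agent was tested in half-log dilutions, topping at clinical Cmax or at 10 microM without a known Cmax.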

[1] = second compound 0.1 µM, first compound 0.01 µM
[2] = second compound 0.1 µM, first compound 0.0316 µM
[3] = second compound 0.1 µM, first compound 0.1 µM
[4] = second compound 0.1 µM, first compound 0.316 µM
[5] = second compound 0.1 µM, first compound 1 µM
[6] = second compound 0.1 µM, first compound 3.16 µM
[7] = second compound 0.316 µM, first compound 0.01 µM
[8] = second compound 0.316 µM, first compound 0.0316 µM
[9] = second compound 0.316 µM, first compound 0.1 µM
[10] = second compound 0.316 µM, first compound 0.316 µM
[11] = second compound 0.316 µM, first compound 1 µM
[12] = second compound 0.316 µM, first compound 3.16 µM
[13] = second compound 1 µM, first compound 0.01 µM
[14] = second compound 1 µM, first compound 0.0316 µM
[15] = second compound 1 µM, first compound 0.1 µM
[16] = second compound 1 µM, first compound 0.316 µM
[17] = second compound 1 µM, first compound 1 µM
[18] = second compound 1 µM, first compound 3.16 µM
[19] = second compound 3.16 µM, first compound 0.01 µM
[20] = second compound 3.16 µM, first compound 0.0316 µM
[21] = second compound 3.16 µM, first compound 0.1 µM
[22] = second compound 3.16 µM, first compound 0.316 µM
[23] = second compound 3.16 µM, first compound 1 µM
[24] = second compound 3.16 µM, first compound 3.16 µM
[25] = second compound 10 µM, first compound 0.01 µM
[26] = second compound 10 µM, first compound 0.0316 µM
[27] = second compound 10 µM, first compound 0.1 µM
[28] = second compound 10 µM, first compound 0.316 µM
[29] = second compound 10 µM, first compound 1 µM
[30] = second compound 10 µM, first compound 3.16 µM
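Also: spheroids exposed to compounds for 7 days.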
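For viability, T/C in this document: 100% = DMSO vehicle control viability.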

Structure (SMILES): CC1COCCN1c1cc(-c2ccnn2C)c2ccnc(-c3ccn[nH]3)c2n1 (stereo not given) + CC1OCC2(CCN(c3cnc(Sc4ccnc(N)c4Cl)c(N)n3)CC2)C1N
- IC50 (second compound 0.1 µM): 2.86 µM
- IC50 (second compound 0.316 µM): > 3.16 µM
- IC50 (second compound 1 µM): 3.16 µM
- IC50 (second compound 3.16 µM): 0.0793 µM
- IC50 (second compound 10 µM): 0.0172 µM
- viability, T/C [1]: 135%
- viability, T/C [2]: 120%
- viability, T/C [3]: 78.5%
- viability, T/C [4]: 75.3%
- viability, T/C [5]: 60%
- viability, T/C [6]: 46.6%
- viability, T/C [7]: 125%
- viability, T/C [8]: 139%
- viability, T/C [9]: 57.9%
- viability, T/C [10]: 66.4%
- viability, T/C [11]: 60.2%
- viability, T/C [12]: 59%
- viability, T/C [13]: 128%
- viability, T/C [14]: 135%
- viability, T/C [15]: 57.4%
- viability, T/C [16]: 55.8%
- viability, T/C [17]: 51.3%
- viability, T/C [18]: 48.5%
- viability, T/C [19]: 134%
- viability, T/C [20]: 118%
- viability, T/C [21]: 32.4%
- viability, T/C [22]: 29%
- viability, T/C [23]: 32.9%
- viability, T/C [24]: 36.3%
- viability, T/C [25]: 68.1%
- viability, T/C [26]: 29.6%
- viability, T/C [27]: 12.9%
- viability, T/C [28]: 11.3%
- viability, T/C [29]: 12.6%
- viability, T/C [30]: 18.3%

Structure (SMILES): CCN1CCN(Cc2ccc(Nc3ncc(F)c(-c4cc(F)c5nc(C)n(C(C)C)c5c4)n3)nc2)CC1 + CC1OCC2(CCN(c3cnc(Sc4ccnc(N)c4Cl)c(N)n3)CC2)C1N
- IC50 (second compound 0.1 µM): > 1 µM
- IC50 (second compound 0.316 µM): > 1 µM
- IC50 (second compound 1 µM): > 1 µM
- IC50 (second compound 3.16 µM): 0.842 µM
- IC50 (second compound 10 µM): 0.0649 µM
- viability, T/C (second compound 0.1 µM, first compound 0.00316 µM): 121%
- viability, T/C [1]: 110%
- viability, T/C [2]: 102%
- viability, T/C [3]: 129%
- viability, T/C [4]: 143%
- viability, T/C [5]: 124%
- viability, T/C (second compound 0.316 µM, first compound 0.00316 µM): 105%
- viability, T/C [7]: 115%
- viability, T/C [8]: 96.7%
- viability, T/C [9]: 139%
- viability, T/C [10]: 135%
- viability, T/C [11]: 74.4%
- viability, T/C (second compound 1 µM, first compound 0.00316 µM): 105%
- viability, T/C [13]: 113%
- viability, T/C [14]: 112%
- viability, T/C [15]: 130%
- viability, T/C [16]: 164%
- viability, T/C [17]: 87.3%
- viability, T/C (second compound 3.16 µM, first compound 0.00316 µM): 95.2%
- viability, T/C [19]: 96.7%
- viability, T/C [20]: 98.1%
- viability, T/C [21]: 117%
- viability, T/C [22]: 150%
- viability, T/C [23]: 39.2%
- viability, T/C (second compound 10 µM, first compound 0.00316 µM): 72%
- viability, T/C [25]: 84.8%
- viability, T/C [26]: 72.4%
- viability, T/C [27]: 36%
- viability, T/C [28]: 18.4%
- viability, T/C [29]: 10.7%

Structure (SMILES): CCNC(=O)CC1N=C(c2ccc(Cl)cc2)c2cc(OC)ccc2-n2c(C)nnc21 (stereo not given) + CC1OCC2(CCN(c3cnc(Sc4ccnc(N)c4Cl)c(N)n3)CC2)C1N
- IC50 (second compound 0.1 µM): > 10 µM
- IC50 (second compound 0.316 µM): > 10 µM
- IC50 (second compound 1 µM): > 10 µM
- IC50 (second compound 3.16 µM): > 10 µM
- IC50 (second compound 10 µM): > 10 µM
- viability, T/C [2]: 104%
- viability, T/C [3]: 107%
- viability, T/C [4]: 122%
- viability, T/C [5]: 82.7%
- viability, T/C [6]: 89.9%
- viability, T/C (second compound 0.1 µM, first compound 10 µM): 84.9%
- viability, T/C [8]: 101%
- viability, T/C [9]: 123%
- viability, T/C [10]: 119%
- viability, T/C [11]: 90.3%
- viability, T/C [12]: 91.2%
- viability, T/C (second compound 0.316 µM, first compound 10 µM): 80.1%
- viability, T/C [14]: 97.5%
- viability, T/C [15]: 139%
- viability, T/C [16]: 138%
- viability, T/C [17]: 108%
- viability, T/C [18]: 107%
- viability, T/C (second compound 1 µM, first compound 10 µM): 89.6%
- viability, T/C [20]: 97.6%
- viability, T/C [21]: 118%
- viability, T/C [22]: 137%
- viability, T/C [23]: 103%
- viability, T/C [24]: 84.2%
- viability, T/C (second compound 3.16 µM, first compound 10 µM): 71.3%
- viability, T/C [26]: 85.2%
- viability, T/C [27]: 91.5%
- viability, T/C [28]: 93.5%
- viability, T/C [29]: 87.6%
- viability, T/C [30]: 67.6%
- viability, T/C (second compound 10 µM, first compound 10 µM): 71.8%
